Values joined by “and” are separate entries in the source; they are usually repeats but may differ in a detail not shown here. Equal values may be shown once. Read-outs that look alike come from different tables or passages of the source.
How the values were obtained:
PC3 cells = system: PC3 cells; design: method as in PMID 33328104; conditions: cited from earlier work
HUVEC cells = system: HUVEC cells; design: method as in PMID 33328104; conditions: cited from earlier work
HepG2 cells [1] = assay: MTT antiproliferative assay on HepG2; type: cell-based; conditions: mean ± S.D. (n = 3), read-out: Cytotoxicity in IC50, HepG2
Procedure: (§1) The antiproliferative activity of the thiophene compounds 3a–g, 4a–c, 6a, and 7a–d was evaluated by an in vitro MTT colorimetric assay on two oncogenic cell lines: liver (HepG2) and prostate (PC-3).
(§2) All cell lines (HepG2, PC-3, and nontumorigenic WI38) were supplied from VACSERA (Cairo, Egypt), cultured in DMEM (Invitrogen/Life Technologies, Waltham, MA, USA) at a density of 1.2–1.8 × 10,000 cells/well in a volume of 100 µL of the growth medium, and then incubated for 24 h, and an MTT assay was done as reported by.

PC-3 cells = assay: MTT antiproliferative assay on PC-3; type: cell-based; conditions: Homo sapiens, PC-3, MTT assay; mean ± S.D. (n = 3); read-out: Cytotoxicity in IC50, PC-3
Procedure: as §1, §2

[2] = MTT assay on normal nononcogenic cell line WI38; type: cell-based; conditions: human, WI38 cells (normal nononcogenic cell line); MTT assay; noncancerous cell line; mean ± S.D. (n = 3); read-out: Cytotoxicity in IC50, WI38
Procedure: (§3) The aforementioned results illustrate that compounds 3b and 4c are the most promising cytotoxic agents on both cell lines and will be subjected to a thorough mechanistic study to understand their anticancer activity. However, before doing this, their selective toxicity and, thus, their safety were evaluated by measuring the IC50 values against the normal nononcogenic cell line (Wl38) by an MTT assay as listed in Table 1. […] Compound 3b gave SI of 6, and compound 4c gave SI = 12 showing better selectivity toward cancer cells than doxorubicin with SI = 5.
as §2

WI38 cells = assay: MTT assay on normal nononcogenic cell line WI38; type: cell-based; conditions: calculated by dividing the IC50 of WI38/PC-3; SI > 2 is considered safe
Procedure: as §3, §2

VEGFR-2 [3] = target: T1, VEGFR-2 (Homo sapiens, UniProt P35968); assay: VEGFR-2 phosphorylation cell-based ELISA in HepG2 cells; conditions: compounds at their formerly determined IC50
T1 sequence (P35968 20-1356): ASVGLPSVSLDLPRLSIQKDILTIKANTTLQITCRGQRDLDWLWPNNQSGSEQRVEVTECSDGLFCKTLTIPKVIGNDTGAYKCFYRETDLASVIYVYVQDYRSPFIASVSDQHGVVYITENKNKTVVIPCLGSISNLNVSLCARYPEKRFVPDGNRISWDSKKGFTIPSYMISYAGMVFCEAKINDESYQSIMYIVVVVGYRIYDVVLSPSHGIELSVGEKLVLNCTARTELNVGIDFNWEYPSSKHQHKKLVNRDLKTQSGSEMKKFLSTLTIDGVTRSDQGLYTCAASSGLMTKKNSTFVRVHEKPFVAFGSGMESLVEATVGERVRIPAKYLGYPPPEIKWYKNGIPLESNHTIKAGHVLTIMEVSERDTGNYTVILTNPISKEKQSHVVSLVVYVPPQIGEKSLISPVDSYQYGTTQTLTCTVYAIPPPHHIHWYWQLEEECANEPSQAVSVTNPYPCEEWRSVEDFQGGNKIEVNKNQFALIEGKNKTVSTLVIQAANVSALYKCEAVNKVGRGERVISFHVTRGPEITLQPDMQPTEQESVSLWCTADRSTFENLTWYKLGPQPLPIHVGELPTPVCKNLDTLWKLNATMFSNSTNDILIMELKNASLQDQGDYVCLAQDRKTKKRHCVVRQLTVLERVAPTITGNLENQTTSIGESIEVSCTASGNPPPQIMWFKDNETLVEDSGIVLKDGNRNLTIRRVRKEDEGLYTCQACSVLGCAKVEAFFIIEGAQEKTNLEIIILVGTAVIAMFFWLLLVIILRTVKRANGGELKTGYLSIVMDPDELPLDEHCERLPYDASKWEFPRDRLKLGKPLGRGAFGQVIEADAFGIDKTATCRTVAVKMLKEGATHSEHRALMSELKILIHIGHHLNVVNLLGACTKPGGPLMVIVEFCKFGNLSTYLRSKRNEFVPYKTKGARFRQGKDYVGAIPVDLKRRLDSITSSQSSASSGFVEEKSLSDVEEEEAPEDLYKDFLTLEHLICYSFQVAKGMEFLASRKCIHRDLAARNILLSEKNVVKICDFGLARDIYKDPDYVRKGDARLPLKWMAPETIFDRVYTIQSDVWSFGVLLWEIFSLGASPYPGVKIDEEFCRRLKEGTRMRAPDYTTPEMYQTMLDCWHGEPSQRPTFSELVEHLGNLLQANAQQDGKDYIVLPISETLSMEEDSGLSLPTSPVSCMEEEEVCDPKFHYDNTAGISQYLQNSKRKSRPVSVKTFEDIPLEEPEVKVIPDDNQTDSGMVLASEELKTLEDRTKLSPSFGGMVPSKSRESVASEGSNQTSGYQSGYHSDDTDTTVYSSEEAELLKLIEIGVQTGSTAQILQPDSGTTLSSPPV
Procedure: VEGFR-2 phosphorylation was assayed using VEGFR2 Antibody (Phospho-Tyr951) (OAEC00085, AVIVA SYSTEM BIOLOGY) [53], while Akt-1 was assayed by Mouse/Human/Rat Phospho-AKT1 (Ser473) (Cell-Based Phosphorylation ELISA) ELISA Kit-LS-F1447 (LSBio) according to manufacturer’s instructions [54].

AKT-1 [4] = target: T2, AKT-1 (Homo sapiens, UniProt P31749); assay: Akt kinase activity assay kit on cell lysate; type: biochemical; conditions: LY2780301 as reference
T2 sequence (P31749 whole entry): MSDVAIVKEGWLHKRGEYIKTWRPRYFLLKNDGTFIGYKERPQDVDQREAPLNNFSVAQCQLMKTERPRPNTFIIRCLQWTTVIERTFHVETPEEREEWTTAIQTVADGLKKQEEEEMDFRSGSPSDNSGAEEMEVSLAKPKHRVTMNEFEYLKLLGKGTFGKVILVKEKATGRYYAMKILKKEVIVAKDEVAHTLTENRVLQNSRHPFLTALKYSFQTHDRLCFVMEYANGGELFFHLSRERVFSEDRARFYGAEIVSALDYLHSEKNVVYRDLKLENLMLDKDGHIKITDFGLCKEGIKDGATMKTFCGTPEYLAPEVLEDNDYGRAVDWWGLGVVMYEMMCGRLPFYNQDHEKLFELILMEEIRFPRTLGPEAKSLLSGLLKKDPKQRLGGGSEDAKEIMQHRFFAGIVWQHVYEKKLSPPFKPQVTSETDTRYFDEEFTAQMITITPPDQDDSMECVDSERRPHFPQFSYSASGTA
Source text: (§5) The outcomes were expressed as IC50 values (mean standard deviation) calculated from the dose–response curves and their linear regression equations.

HepG2 cells [5] = assay: Flow cytometric cell cycle analysis; type: cell-based; conditions: HepG2, 48 h, at IC50
Procedure: AKT-1 is known for its downstream activation of several proteins involved in cell proliferation and apoptosis evasion. In addition, it is reported to be involved in G1–S checkpoint transition and proliferation.
(§4) Analyzing the DNA content in the cell cycle phases by flow cytometry was conducted using FACSCalibur (Becton Dickinson, Franklin Lakes, NJ, USA) following the manufacturer’s manual. The cell cycle analysis procedures were as reported by on HepG2 cells after their treatment with the most promising derivatives for 48 h. Further assessment of the proapoptotic effect was determined by the Annexin V-FITC/PI apoptosis detection kit (Catalog # K101-25, BD Biosciences, San Diego, CA, USA).

HepG2 cells [6] = assay: Annexin V-FITC/PI apoptosis detection; type: cell-based; conditions: HepG2, 48 h; for Apoptosis, Total (cells percentage) / Apoptosis, Early (cells percentage) / Apoptosis, Late (cells percentage) / Necrosis (cells percentage): at IC50; for Apoptosis, Early (cells percentage): Q2 in Figure 6; for Apoptosis, Late (cells percentage): Q3 in Figure 6; for Necrosis (cells percentage): Q4 in Figure 6
Procedure: Annexin V/PI staining with flow cytometric analysis was adapted to measure early and late apoptotic cells and necrotic cells as presented in Table 3 and Figure 6.
as §4

caspase-3 = assay: Active caspase-3 ELISA in HepG2 cells; type: cell-based, human
Procedure: Apoptosis is known to be carried out through three different pathways: intrinsic, extrinsic, and granzyme pathways. One of the controlling proteins in apoptosis is the cysteine protease named caspase with the chief executer caspase 3 [46, 47]. Accordingly, assessing the effect of 3b and 4c on the active caspase-3 level was done in HepG2 cells taking doxorubicin as the reference drug.
The colorimetric ELISA assay for active caspase-3 detection was carried out utilizing Invitrogen™ Caspase-3 (Cleaved) Human ELISA-Kit (KHO1091, CA, USA) according to the manufacturer’s procedures. ROBONIK P2000 ELISA reader was used at 450 nm, and the standard curve was obtained by plotting the mean absorbance of each standard concentration against human caspase-3 concentrations.

VEGFR-2 [7] = target: T1, VEGFR-2; assay: VEGFR2 (KDR) kinase assay kit; type: biochemical; design: purchased BPS Bioscience 40325; conditions: read-out: VEGFR-2 kinase inhibitory activity IC50
Source text: as §5

AKT-1 [8] = target: T2, AKT-1; assay: Phospho-AKT1 (Ser473) cell-based phosphorylation ELISA in HepG2 cells; design: endogenous in cells; host or cells: HepG2
Procedure: To investigate the success of the design strategy developed in this work, the effect of the promising candidates 3b and 4c was assessed on AKT-1, a crucial protein, by determining their phosphorylation inhibition rate in HepG2 cells and measuring their biochemical kinase inhibitory activity.
VEGFR-2 phosphorylation was assayed using VEGFR2 Antibody (Phospho-Tyr951) (OAEC00085, AVIVA SYSTEM BIOLOGY), while Akt-1 was assayed by Mouse/Human/Rat Phospho-AKT1 (Ser473) (Cell-Based Phosphorylation ELISA) ELISA Kit-LS-F1447 (LSBio) according to manufacturer’s instructions.

lung, ovarian, CNS cells = system: lung, ovarian, CNS cells; design: method as in PMID 28759878; conditions: read-out: IC50 range in lung, ovarian, CNS cells; cited from earlier work
FAK = system: FAK; design: method as in PMID 20050669, PMID 31923858; conditions: cited from earlier work

## O=C(Nc1ccc(Cl)c(Cl)c1)Nc1nnc(Sc2ncnc3scc(-c4ccncc4)c23)s1 [V]
PC3 cells
  Pro-apoptotic effect in PC3 cells: 44%
HUVEC cells
  Pro-apoptotic effect in HUVEC cells: 28.45%

## CCOC(=O)c1c(NC(=S)Nc2cc(C)ccc2Cl)sc2c1N(C)CC2 [4c, Ethyl 2-(3-(2-chloro-5-methylphenyl)thioureido)-4-methyl-5,6-dihydro-4H-thieno[3,2-b]pyrrole-3-carboxylate]
HepG2 cells [1]; Homo sapiens, HepG2, MTT assay
  IC50: 3.02 µM
HepG2 cells [1]; MTT assay
  IC50: 3.02 ± 0.14 µM
PC-3 cells
  IC50: 3.12 ± 0.17 µM
[2]
  IC50: 35.3 ± 1.92 µM
WI38 cells
  Selectivity Index (SI): 12 and 11.68
VEGFR-2 [3]
  VEGFR-2 phosphorylation inhibition: 70%
AKT-1 [4]
  IC50: 4.6 µM
HepG2 cells [5]
  % Content of DNA, G0:G1: 53.28%
  % Content of DNA, G2:M: 1.48%
  % Content of DNA, PreG1: 29.81%
  % Content of DNA, S: 45.24%
HepG2 cells [6]
  Increase in early apoptotic cells over untreated cells: 7 fold
  Increase in late apoptotic cells over untreated cells: 97 fold
  Apoptosis, Total (cells percentage): 29.81%
  Apoptosis, Early (cells percentage): 3.85%
  Apoptosis, Late (cells percentage): 16.55%
  Necrosis (cells percentage): 9.41%
caspase-3
  Increase in active caspase-3 level over the untreated cells: six-fold
VEGFR-2 [7]
  IC50: 0.075 µM
AKT-1 [8]
  AKT-1 phosphorylation inhibition rate: 71.6%

## COc1ccc(-c2nc3sc4c(c3c(=O)[nH]2)CCCC4)cc1 [III]
lung, ovarian, CNS cells
  IC50: 0.6 to 1.2 µM

## COc1ccccc1-c1csc2cnc(Nc3ccc(C(=O)NC4CCNCC4)c(F)c3)nc12 [II]
FAK
  IC50: 0.0282 µM

## CN1CCc2sc3nc(-c4ccc(Cl)cc4)[nH]c(=O)c3c21 [3b, 2-(4-Chlorophenyl)-5-methyl-3,5,6,7-tetrahydro-4H-pyrrolo[2′,3′:4,5]thieno[2,3-d]pyrimidin-4-one]
HepG2 cells [1]; Homo sapiens, HepG2, MTT assay
  IC50: 3.1 µM
HepG2 cells [1]; MTT assay
  IC50: 3.11 ± 0.14 µM
PC-3 cells
  IC50: 2.15 ± 0.12 µM
[2]
  IC50: 12.5 ± 0.68 µM
WI38 cells
  Selectivity Index (SI): 6 and 5.79
VEGFR-2 [3]
  VEGFR-2 phosphorylation inhibition: 58.3%
AKT-1 [4]
  IC50: 6.96 µM
HepG2 cells [5]
  % Content of DNA, G0:G1: 39.42%
  % Content of DNA, G2:M: 4.39%
  % Content of DNA, PreG1: 42.06%
  % Content of DNA, S: 56.19%
  Cell cycle comment (phase of arrest): cell growth arrest@ S
HepG2 cells [6]
  Increase in early apoptotic cells over untreated cells: 5 fold
  Increase in late apoptotic cells over untreated cells: 144 fold
  Apoptosis, Total (cells percentage): 42.06%
  Apoptosis, Early (cells percentage): 2.51%
  Apoptosis, Late (cells percentage): 24.53%
  Necrosis (cells percentage): 15.02%
caspase-3
  Increase in active caspase-3 level over the untreated cells: five-fold
other
  melting point: 168 °C
VEGFR-2 [7]
  IC50: 0.126 µM
AKT-1 [8]
  AKT-1 phosphorylation inhibition rate: 63%
